{"source": "patent US20070248967A1", "about": "“Reporter Assay Using Secrectory Luminescent Enzymes” (NATIONAL INSTITUTE OF ADVANCED INDUSTRIAL SCIENCE, priority 2005, published 2007)", "molecules": {"B1": {"name": "CLuc: Cypridina noctiluca-secretory luciferase (SEQ ID NO: 2); secreted from yeast as αCLuc with α-factor signal peptide (protein, listed as Cypridina noctiluca)", "chain": "MKTLILAVALVYCATVHCQDCPYEPDPPNTVPTSCEAKEGECIDSSCGTCTRDILSDGLCENKPGKTCCRMCQYVIECRVEAAGWFRTFYGKRFQFQEPGTYVLGQGTKGGDWKVSITLENLDGTKGAVLTKTRLEVAGDIIDIAQATENPITVNGGADPIIANPYTIGEVTIAVVEMPGFNITVIEFFKLIVIDILGGRSVRIAPDTANKGMISGLCGDLKMMEDTDFTSDPEQLAIQPKINQEFDGCPLYGNPDDVAYCKGLLEPYKDSCRNPINFYYYTISCAFARCMGGDERASHVLLDYRETCAAPETRGTCVLSGHTFYDTFDKARYQFQGPCKEILMAADCFWNTWDVKVSHRNVDSYTEVEKVRIRKQSTVVELIVDGKQILVGGEAVSVPYSSQNTSIYWQDGDILTTAILPEALVVKFNFKQLLVVHIRDPFDGKTCGICGNYNQDFSDDSFDAEGACDLTPNPPGCTEEQKPEAERLCNSLFAGQSDLDQKCNVCHKPDRVERCMYEYCLRGQQGFCDHAWEFKKECYIKHGDTLEVPDECK", "modifications": "α-factor signal peptide"}}, "key": {"[1]": {"tested_on": "CUP1 promoter", "experiment": "CuSO4 induction experiment, reporter assay using mCLuc or β-galactosidase", "assay_type": "cell-based, Saccharomyces cerevisiae", "settings": "0.025 mM CuSO4-containing medium, pmCLuRA-CUP1 (8 hours) / pGALuRA-CUP1 (16 hours); FIGS. 13A, 13B", "procedure": "It has been known that the expression of the CUP1 gene (systematic gene name: YHR053C) of Saccharomyces cerevisiae is induced in the presence of copper ions (Gene, 48, 13-22 (1986)). That is, a CUP1 promoter is a copper-ion-inducible promoter. Thus, with the use of pmCLuRA-CUP1, it was examined whether or not such induction would be observed in the case of mCLuc. In addition, a similar experiment was carried out using β-galactosidase. The results of both experiments were compared and examined.\nThree clones of a transformant comprising pmCLuRA-CUP1 and those of a transformant comprising pGALuRA-CUP1 described above were separately introduced into a synthetic liquid medium (SD+KHLadeW 200 mM KPi). Each resultant was shake-cultured overnight at 30° C. until the stationary phase.\nSubsequently, 5 μl of the culture solution containing a transformant comprising pmCLuRA-CUP1 was introduced into each well of a 96-deep well plate, with 1 ml of a 0.025 mM CuSO4-containing synthetic liquid medium (SD+KHLadeW 200 mM KPi) or a CuSO4-free synthetic liquid medium (SD+KHLadeW 200 mM KPi) having been added to such well. This was followed by shake culture at 30° C. 8 hours after the initiation of culture, a portion of the culture solution was recovered, followed by measurement of absorbance at 600 nm (OD600) and relative light units (RLU) from a luminometer in accordance with the method in Example 1. […]"}, "[2]": {"tested_on": "CLuc", "experiment": "Influences of various chemical substances on CLuc activity measurement", "assay_type": "biochemical, Cypridina noctiluca", "settings": "highly concentrated chemical substance added to culture supernatant; FIG. 6", "from_the_text": "For the CLuc activity measurement, an LB960 luminometer (Berthold) was used.\nThe measurement values were divided by absorbance of the culture solution at 600 nm such that CLuc activity subjected to a correction of the number of yeast cell bodies was obtained.\nInfluences of chemical substances on CLuc activity measurement were examined, as such substances coexist with yeast culture supernatants upon CLuc activity measurement following the secretory expression of CLuc in yeasts.\nChemical substances (2 μl) that had been adjusted to have different concentrations were separately added to 20 μl of the prepared culture supernatant, followed by CLuc activity measurement.\nThe relative residual activity of each sample is represented by the mean value and the standard deviation on the condition that the CLuc activity of a sample to which a chemical substance was not added is determined to be 100%."}, "[3]": {"tested_on": "CLuc", "settings": "final concentration in reaction solution, 100 mM Tris-HCl pH 7.4; FIG. 3", "method": "In addition, a stock solution of the culture supernatant of the transformant comprising pCLuRA-TDH3 was separately serial-diluted 10-fold, 100-fold, 1000-fold, and 10000-fold with an SD medium containing a 100 mM phosphate buffer solution so that the resulting diluted culture supernatants were used. Specifically, the concentration of the culture supernatant stock solution was determined to be 100% such that 10-fold, 100-fold, 1000-fold, and 10000-fold diluted culture supernatants had supernatant concentrations of 10%, 1%, 0.1%, and 0.01%, respectively.\nThen, CLuc activity measurement was carried out as with the case of Example 1.\nIn FIG. 3, plots indicate results obtained by using culture supernatants that had been serial-diluted with a culture supernatant stock solution (100%) with reaction solutions with different final concentrations of luciferin."}, "[4]": {"tested_on": "GAL1 promoter", "experiment": "Galactose induction experiment, reporter assay using mCLuc or β-galactosidase", "assay_type": "cell-based, Saccharomyces cerevisiae", "settings": "2% galactose-containing medium without glucose, 32 hours, pmCLuRA-GAL1 / pGALuRA-GAL1; FIGS. 14A, 14B", "procedure": "It has been known that the expression of GAL1 gene (systematic gene name: YBR020W) of Saccharomyces cerevisiae is induced in the absence of glucose and the presence of galactose (West, R. W. J. et al., Mol. Cell. Biol., 4: 2467-2478 (1984)). That is, a GAL1 promoter is a galactose-inducible promoter. Thus, with the use of pmCLuRA-GAL1, it was examined whether or not such induction would be observed in the case of mCLuc. In addition, a similar experiment was carried out using β-galactosidase. The results of both experiments were compared and examined.\nThree clones of a transformant comprising pmCLuRA-GAL1 and those of a transformant comprising pGALuRA-GAL1 described above were separately introduced into a synthetic liquid medium (SD+KHLadeW 200 mM KPi). […]\nSubsequently, 20 μl of the culture solution containing a transformant comprising pmCLuRA-GAL1 was introduced into each well of a 96-deep well plate, with 1 ml of a 2% galactose-containing synthetic liquid medium (SC+KHLadeW (prepared by removing glucose from SD+KHLWade in Example 1) 200 mM KPi) or a synthetic liquid medium (SD+KHLadeW 200 mM KPi) having been added to such well. […] 32 hours after the initiation of culture, a portion of the culture solution was recovered, followed by measurement of absorbance at 600 nm (OD600) and relative light units (RLU) from a luminometer in accordance with the method in Example 1. […]"}, "[5]": {"experiment": "Stability of CLuc in yeast culture supernatants", "assay_type": "physicochemical", "procedure": "The prepared culture supernatants were incubated at 0° C., 25° C., 40° C., and 50° C. for 0, 15, 30, and 60 minutes, respectively, followed by CLuc activity measurement.\nIn FIG. 4, each plot indicates the mean value and the standard deviation of relative residual activities of each sample subjected to incubation at a given temperature for a given period of time. The vertical axis denotes the relative residual activity based on the CLuc activity (100%) of a sample that had not been incubated."}, "[6]": {"experiment": "Stability of CLuc activity after sampling of culture solutions", "assay_type": "physicochemical", "settings": "culture solution incubated at 25° C. for 30 minutes; FIG. 8", "procedure": "Thus, in order to examine the stability of CLuc activity after sampling of culture solutions, a transformant comprising pCLuRA-TDH3 prepared in Example 1 was cultured as with the case of Example 1. Then, the yeast culture solution was partially collected (sampling), followed by incubation at 25° C. for 0, 10, 20, and 30 minutes. After incubation, the CLuc activity of each culture solution sample was measured as with the case of Example 1.\nIn FIG. 8, CLuc activity is shown as the relative residual activity based on the CLuc activity of a sample that was measured immediately after sampling (100%)."}}}
{"molecule": "O=S(=O)([O-])[O-].[Cu+2]", "note": "[CuSO4]", "values": [{"measurement": "transcription induction of the CUP1 promoter", "setting": "[1]", "value": "transcription induction"}, {"measurement": "inhibition of the enzyme activity of CLuc (relative residual activity)", "setting": "[2]", "value": "inhibited"}]}
{"molecule": "CC[C@H](C)c1nc2c(CCCNC(=N)N)[nH]c(-c3c[nH]c4ccccc34)cn-2c1=O", "note": "[Cypridina luciferin]", "values": [{"measurement": "final luciferin concentration at which CLuc activity reaches a saturation point", "setting": "[3]", "value": "≥ 1", "unit": "µM"}]}
{"molecule": "CCO", "note": "[ethanol]", "values": [{"measurement": "inhibition of the enzyme activity of CLuc (relative residual activity)", "setting": "[2]", "value": "inhibited"}]}
{"molecule": "O=C[C@H](O)[C@@H](O)[C@@H](O)[C@H](O)CO", "note": "[galactose]", "values": [{"measurement": "transcription induction of the GAL1 promoter", "setting": "[4]", "value": "transcription induction"}]}
{"molecule": "B1", "values": [{"measurement": "stability of CLuc as an enzyme (relative residual activity)", "setting": "[5]; culture supernatant incubated at 0, 25, 40, 50° C. for 0-60 minutes, FIG. 4", "value": "highly stable"}, {"measurement": "stability of CLuc at room temperature", "setting": "[5]; culture supernatant, room temperature, 15 minutes after sampling", "value": "stable"}, {"measurement": "change in CLuc activity after sampling (relative residual activity)", "setting": "[6]", "value": "almost no change"}]}
